Measurements taken from ChEMBL document CHEMBL1201862, “PubChem BioAssay data set” (2004).
Active and inactive are the calls of the source.

Columns and labels:
[1] = blockers of bursicon-stimulated LGR2 cAMP reporter – cell-based, HEK293, CRE-luciferase reporter, cherry pick, set 2, dose response (AID 743343); format: functional;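 further: transfected cells were stimulated with diluted bursicon conditioned medium after compound addition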
[2] = blockade of melanocortin 4 receptor signaling – cell-based, plate reader, cherry pick, counter-screen for LGR2 antagonist project, dose response (AID 743444); format: functional;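 further: transfected HEK 293 cells stimulated with alpha-MSH peptide; potency of inhibitors of the alpha-MSH evoked signal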
[3] = system: HEK293; assay: EBV LMP1 TES2 canonical NF-kB signalling blockers – cell-based, HEK293, luciferase, cherry-pick, dose response (AID 588343); format: functional; conditions: Homo sapiens
[4] = system: Streptococcus sp. 'group A'; assay: Streptococcus pyogenes SK(-)GAS viability under kanamycin – luminescence, BacTiterGlo, confirmation, counter-screen for streptokinase expression inhibitor project, dose response (AID 1900); format: functional, organism-based
[5] = Vero E6 cell cytotoxicity, dose response, cytotoxicity control for non-replicating M. tuberculosis project, secondary assay (AID 492998); format: functional, VeroE6; conditions: Vero C1008
[6] = HepG2 cell cytotoxicity, dose response, cytotoxicity control for non-replicating M. tuberculosis project (AID 489018); format: functional; conditions: Mycobacterium tuberculosis
[7] = molecular target: T1, Cytochrome P450 3A4 (Homo sapiens, UniProt P08684)
T1 sequence (P08684 whole entry): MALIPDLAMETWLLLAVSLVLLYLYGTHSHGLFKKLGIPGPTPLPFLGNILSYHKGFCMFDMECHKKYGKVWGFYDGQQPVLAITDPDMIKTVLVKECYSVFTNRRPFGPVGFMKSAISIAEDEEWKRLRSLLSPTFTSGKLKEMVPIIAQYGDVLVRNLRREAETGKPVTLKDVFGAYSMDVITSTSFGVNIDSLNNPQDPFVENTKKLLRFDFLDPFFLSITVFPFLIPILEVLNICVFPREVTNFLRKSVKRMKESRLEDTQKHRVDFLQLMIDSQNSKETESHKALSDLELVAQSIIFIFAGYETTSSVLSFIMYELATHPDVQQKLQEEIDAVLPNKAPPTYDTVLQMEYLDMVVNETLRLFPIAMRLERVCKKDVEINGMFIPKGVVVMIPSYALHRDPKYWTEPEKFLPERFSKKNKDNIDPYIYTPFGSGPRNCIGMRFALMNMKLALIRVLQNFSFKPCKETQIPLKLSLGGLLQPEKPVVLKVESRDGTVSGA

[8] = microbe, parasite or virus in culture; format: functional; conditions: Mycobacterium tuberculosis
[9] = cells; format: functional
[10] = molecular target: Cytochrome P450 2D6 (Homo sapiens, UniProt P10635);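 further: CYP2D6 member of a cytochrome P450 panel assay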
Sequence of Cytochrome P450 2D6 (P10635 whole entry): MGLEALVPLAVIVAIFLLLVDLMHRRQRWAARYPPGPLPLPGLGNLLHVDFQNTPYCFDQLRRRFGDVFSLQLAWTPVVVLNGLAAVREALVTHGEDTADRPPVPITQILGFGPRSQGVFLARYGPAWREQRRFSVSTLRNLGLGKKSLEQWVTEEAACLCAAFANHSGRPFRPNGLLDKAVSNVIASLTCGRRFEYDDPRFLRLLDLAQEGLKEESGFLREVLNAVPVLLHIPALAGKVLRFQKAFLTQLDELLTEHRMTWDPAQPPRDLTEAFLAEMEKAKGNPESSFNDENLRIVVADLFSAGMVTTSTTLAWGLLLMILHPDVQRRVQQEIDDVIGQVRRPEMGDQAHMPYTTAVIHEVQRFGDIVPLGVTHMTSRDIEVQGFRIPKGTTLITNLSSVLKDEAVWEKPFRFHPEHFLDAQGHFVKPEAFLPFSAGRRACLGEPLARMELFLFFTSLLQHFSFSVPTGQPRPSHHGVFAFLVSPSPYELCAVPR

[11] = molecular target: T2, Streptokinase A (Streptococcus pyogenes serotype M1, UniProt P10520); assay: viability-normalized secreted streptokinase activity reduction – plasminogen activation absorbance, OD405, dose response (AID 1914); format: functional, Streptococcus pyogenes M1 GAS;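 further: secreted streptokinase activity via plasminogen activation per viability signal from cell pellet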
T2 sequence (P10520 whole entry): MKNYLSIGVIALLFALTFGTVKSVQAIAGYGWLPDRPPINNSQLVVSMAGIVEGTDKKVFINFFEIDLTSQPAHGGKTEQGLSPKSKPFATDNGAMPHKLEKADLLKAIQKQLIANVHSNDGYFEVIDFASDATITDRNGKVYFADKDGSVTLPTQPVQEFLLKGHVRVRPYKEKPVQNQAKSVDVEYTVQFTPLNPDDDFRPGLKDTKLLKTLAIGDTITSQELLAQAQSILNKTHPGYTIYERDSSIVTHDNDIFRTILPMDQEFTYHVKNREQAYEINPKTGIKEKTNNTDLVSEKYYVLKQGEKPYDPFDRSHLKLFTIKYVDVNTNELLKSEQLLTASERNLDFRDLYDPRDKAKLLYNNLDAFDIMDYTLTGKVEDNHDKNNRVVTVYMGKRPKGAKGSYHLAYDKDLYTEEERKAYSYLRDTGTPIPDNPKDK

[12] = THP-1 cell cytotoxicity, dose response, cytotoxicity control for non-replicating M. tuberculosis project (AID 489025); format: functional
[13] = system: Streptococcus; assay: GAS UMAA2166 growth inhibition – luminescence, BacTiterGlo, counter-screen for streptokinase expression inhibitor project, dose response (AID 1915); format: functional, organism-based;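 further: potency for reduction of bacterial viability or growth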
[14] = molecular target: Voltage-dependent T-type calcium channel subunit alpha-1H (Homo sapiens, UniProt O95180); format: functional;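 further: channel activity triggered by adding a high calcium stimulation buffer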
Sequence of Voltage-dependent T-type calcium channel subunit alpha-1H (O95180 whole entry): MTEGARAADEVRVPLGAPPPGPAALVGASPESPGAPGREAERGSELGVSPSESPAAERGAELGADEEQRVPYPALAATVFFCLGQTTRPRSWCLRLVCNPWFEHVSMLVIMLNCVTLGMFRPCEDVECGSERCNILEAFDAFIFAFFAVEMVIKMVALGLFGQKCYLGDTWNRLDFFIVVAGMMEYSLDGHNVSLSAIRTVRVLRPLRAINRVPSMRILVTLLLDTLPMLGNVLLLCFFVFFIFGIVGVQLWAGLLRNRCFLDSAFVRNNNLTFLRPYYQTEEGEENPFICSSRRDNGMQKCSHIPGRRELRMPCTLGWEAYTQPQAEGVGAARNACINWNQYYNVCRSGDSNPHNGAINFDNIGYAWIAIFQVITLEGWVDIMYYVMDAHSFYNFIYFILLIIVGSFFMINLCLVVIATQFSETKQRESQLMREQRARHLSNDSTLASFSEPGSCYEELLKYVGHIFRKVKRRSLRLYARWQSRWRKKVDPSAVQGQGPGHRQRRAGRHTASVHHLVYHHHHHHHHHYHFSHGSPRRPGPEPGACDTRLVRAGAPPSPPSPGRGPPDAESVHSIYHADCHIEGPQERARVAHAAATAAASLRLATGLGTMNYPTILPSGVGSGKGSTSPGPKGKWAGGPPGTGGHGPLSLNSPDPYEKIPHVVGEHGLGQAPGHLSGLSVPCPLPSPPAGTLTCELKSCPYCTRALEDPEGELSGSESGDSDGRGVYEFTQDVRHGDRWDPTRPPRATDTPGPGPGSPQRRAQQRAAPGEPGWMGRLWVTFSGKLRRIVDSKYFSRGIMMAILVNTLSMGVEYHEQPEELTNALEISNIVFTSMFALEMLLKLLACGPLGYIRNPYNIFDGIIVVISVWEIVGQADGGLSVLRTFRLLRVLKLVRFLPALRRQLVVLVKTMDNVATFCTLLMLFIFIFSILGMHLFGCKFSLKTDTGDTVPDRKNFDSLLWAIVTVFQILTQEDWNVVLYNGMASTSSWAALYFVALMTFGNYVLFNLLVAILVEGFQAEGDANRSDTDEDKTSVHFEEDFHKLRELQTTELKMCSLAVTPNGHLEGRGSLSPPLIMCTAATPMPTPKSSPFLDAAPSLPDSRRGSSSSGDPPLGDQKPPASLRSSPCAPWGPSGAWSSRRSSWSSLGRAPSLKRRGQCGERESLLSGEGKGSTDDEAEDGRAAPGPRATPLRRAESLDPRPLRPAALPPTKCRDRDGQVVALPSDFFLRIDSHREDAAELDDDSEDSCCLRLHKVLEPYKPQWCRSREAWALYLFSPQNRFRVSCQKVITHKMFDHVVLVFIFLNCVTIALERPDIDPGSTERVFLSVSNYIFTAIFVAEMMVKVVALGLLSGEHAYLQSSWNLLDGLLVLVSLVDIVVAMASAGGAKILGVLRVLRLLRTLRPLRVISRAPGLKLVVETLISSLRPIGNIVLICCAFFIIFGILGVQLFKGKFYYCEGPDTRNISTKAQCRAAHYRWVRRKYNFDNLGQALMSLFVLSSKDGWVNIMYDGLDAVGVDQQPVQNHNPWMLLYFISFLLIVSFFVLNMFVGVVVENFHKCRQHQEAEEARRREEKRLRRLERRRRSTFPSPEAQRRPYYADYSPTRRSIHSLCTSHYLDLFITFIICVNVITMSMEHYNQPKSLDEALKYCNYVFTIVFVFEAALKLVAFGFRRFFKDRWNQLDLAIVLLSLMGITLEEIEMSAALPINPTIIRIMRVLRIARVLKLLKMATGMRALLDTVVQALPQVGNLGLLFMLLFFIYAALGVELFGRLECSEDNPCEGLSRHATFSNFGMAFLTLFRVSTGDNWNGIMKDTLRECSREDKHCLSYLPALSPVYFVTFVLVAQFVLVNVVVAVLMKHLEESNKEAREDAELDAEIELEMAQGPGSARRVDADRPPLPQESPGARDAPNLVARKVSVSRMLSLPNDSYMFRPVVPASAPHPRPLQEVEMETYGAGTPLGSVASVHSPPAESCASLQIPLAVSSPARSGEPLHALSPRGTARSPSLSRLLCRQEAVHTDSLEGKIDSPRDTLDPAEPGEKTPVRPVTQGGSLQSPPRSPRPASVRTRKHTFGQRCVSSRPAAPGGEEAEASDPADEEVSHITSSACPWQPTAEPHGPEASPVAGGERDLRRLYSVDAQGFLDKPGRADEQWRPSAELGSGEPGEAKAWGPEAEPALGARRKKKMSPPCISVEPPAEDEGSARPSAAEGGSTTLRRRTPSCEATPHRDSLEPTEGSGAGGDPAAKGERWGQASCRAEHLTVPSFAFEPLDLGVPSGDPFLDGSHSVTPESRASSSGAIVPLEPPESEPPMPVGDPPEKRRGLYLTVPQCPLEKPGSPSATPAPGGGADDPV

[15] = cells; format: functional, cell-based
[16] = cells; format: functional, cell-based; remark: listed apart in the source
[17] = molecular target: T1, Cytochrome P450 3A4; conditions: Potency
[18] = A549 cell cytotoxicity, dose response, cytotoxicity control, plate reader, cherry-pick, antagonist series (AID 743412); format: functional, cell-based
[19] = toxicity toward HepG2 liver cells – cell-based, plate reader, cherry-pick, antagonist series, cytotoxicity control, dose response (AID 743416); format: functional
[20] = viability of HCT116 lacking mutant beta-catenin – cell-based, human colon tumor, dose response (AID 1045); format: functional;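 further: HCT116 colon tumor cells with beta catenin knocked out; cells exposed to compound for 60 hours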
[21] = viability of PTEN-deleted HCT116 cells – cell-based, HCT116 PTEN knockout, dose response (AID 1047); format: functional;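 further: HCT116 colon tumor cells with PTEN knocked out; cells exposed to compound for 60 hours before readout; potency for loss of cell viability measured by luminescence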
[22] = Luminescence Cell-Based Dose Retest to Confirm Inhibitors of Cancer Stem Cells. [Related pubchem assays (depositor defined):AID2717, AID2721]; format: functional; conditions: Homo sapiens
[23] = non-specific 3'UTR reporter inhibition in Clone20-Shn3RL – cell-based, Renilla luciferase, cherry-picked, counter-screen for Shn3 inhibitor project, dose response (AID 624133); format: functional
[24] = molecular target: T3, Ubiquitin-conjugating enzyme E2 N (Homo sapiens, UniProt P61088); format: functional;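 further: Dose-response confirmation in a TR-FRET assay detecting UBC13-driven polyubiquitin chain formation, inhibition measured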
T3 sequence (P61088 whole entry): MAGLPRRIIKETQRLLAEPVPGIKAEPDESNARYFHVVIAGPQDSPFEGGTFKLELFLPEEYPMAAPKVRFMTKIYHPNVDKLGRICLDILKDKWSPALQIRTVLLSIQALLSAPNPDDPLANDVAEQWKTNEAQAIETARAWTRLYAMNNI

[25] = loss of viability in HepG2 cells – cell-based, CellTiter-Glo, cherry-picked, cytotoxicity control for Shn3 inhibitor project, dose response (AID 624134); format: functional
[26] = reduction of Shn3 3'UTR-driven luciferase in osteoblasts – cell-based, Clone20 osteoblasts, firefly luciferase, cherry-picked, dose response (AID 624132); format: functional;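 further: firefly luciferase luminescence from reporter carrying the Shn3 3'UTR in osteoblasts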
[27] = molecular target: T4, Cytochrome P450 1A2 (Homo sapiens, UniProt P05177);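 further: PubChem cytochrome P450 panel assay, CYP1A2 panel member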
T4 sequence (P05177 whole entry): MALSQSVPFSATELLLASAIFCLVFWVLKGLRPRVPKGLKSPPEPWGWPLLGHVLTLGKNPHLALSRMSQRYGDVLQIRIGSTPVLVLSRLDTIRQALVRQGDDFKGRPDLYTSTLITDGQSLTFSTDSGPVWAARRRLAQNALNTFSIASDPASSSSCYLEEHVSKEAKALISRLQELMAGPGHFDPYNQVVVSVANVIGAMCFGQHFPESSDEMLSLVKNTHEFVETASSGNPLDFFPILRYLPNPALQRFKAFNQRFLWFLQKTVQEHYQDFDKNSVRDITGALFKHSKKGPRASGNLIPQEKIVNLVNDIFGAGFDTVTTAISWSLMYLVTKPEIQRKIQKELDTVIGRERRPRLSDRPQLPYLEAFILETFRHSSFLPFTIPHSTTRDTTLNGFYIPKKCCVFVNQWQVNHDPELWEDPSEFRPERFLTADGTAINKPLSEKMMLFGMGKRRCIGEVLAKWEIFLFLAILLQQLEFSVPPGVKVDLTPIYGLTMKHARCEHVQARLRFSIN

[28] = system: H9c2; assay: cells; format: functional, cell-based; conditions: Rattus norvegicus, H9c2, Myocardium;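 further: confirmatory concentration-response retest of ultra-high-throughput screening hits for modulation of myocardial damage; cell death induced by hydrogen peroxide oxidative stress; compound pretreatment for 60 min then peroxide exposure for 2 h; potency is for protecting the cells against peroxide damage rather than for killing them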
[29] = OVCAR8 cell viability loss – plate reader, dry powder samples, PAX8 project, dose response (AID 743197); format: functional, cell-based; conditions: OVCAR-8
[30] = molecular target: Paired box protein Pax-8 (Homo sapiens, UniProt Q06710); assay: PAX8 transcriptional activity inhibition in RMG-I – RMG-I cells, luciferase, cherry-pick, dose response (AID 687027); format: functional, cell-based;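 further: luciferase reporter driven by Pax8 target thyroperoxidase promoter measured by SteadyGlo luminescence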
Sequence of Paired box protein Pax-8 (Q06710 whole entry): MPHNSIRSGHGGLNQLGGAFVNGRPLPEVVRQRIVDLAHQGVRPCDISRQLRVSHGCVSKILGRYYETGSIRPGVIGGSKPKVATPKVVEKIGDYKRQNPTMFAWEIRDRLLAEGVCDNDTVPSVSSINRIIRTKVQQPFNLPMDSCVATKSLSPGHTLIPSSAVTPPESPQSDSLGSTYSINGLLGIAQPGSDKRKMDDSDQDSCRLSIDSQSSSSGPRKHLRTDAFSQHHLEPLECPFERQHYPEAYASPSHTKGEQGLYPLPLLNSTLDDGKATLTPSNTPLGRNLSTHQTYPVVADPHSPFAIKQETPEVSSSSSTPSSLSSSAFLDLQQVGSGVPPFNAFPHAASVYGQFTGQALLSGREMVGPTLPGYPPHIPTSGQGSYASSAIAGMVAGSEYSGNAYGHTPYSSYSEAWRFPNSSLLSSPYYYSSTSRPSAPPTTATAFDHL

[31] = OVCAR-3 cell viability loss – plate reader, dry powder samples, PAX8 inhibitor project, dose response (AID 743044); format: functional, cell-based
[32] = P. falciparum Dd2 growth inhibitors, dose response, SYBR Green, cherry-picked samples (AID 1159567); format: functional, cell-based

## Clc1ccc(-n2ncc3c(N4CCCC4)ncnc32)cc1
[1]
  AC50: 2.04 µM (active)
[2]
  AC50: 2.7 µM (active)
[3]
  AC50: 1.32 µM (active)

## Cc1nn(-c2nc3ccccc3[nH]2)c(N)c1-c1ccc(Cl)cc1
[4]
  EC50: 2.42 µM (active)
[5]
  CC50: 17.2 µM (active)
[6]
  CC50: 16.2 µM (active)
[7]
  AC50: 25.1 µM (inconclusive)
[8]
  CC50: 31.1 µM (active)
[9]
  IC50: 1.23 µM (active)
[10]
  AC50: 12.6 µM (inconclusive)
[11]
  EC50: > 150 µM (not active)
[12]
  CC50: 25.8 µM (active)
[13]
  EC50: 8.49 µM (active)

## COc1ccc(S(=O)(=O)N(Cc2ccccc2)Cc2nc(-c3ccccc3)no2)cc1
[14]
  EC50: 6.27 µM (active)

## O=C(NCCSc1c[nH]c2ccccc12)c1ccc(Br)o1
[15]
  EC50: > 350 µM (not active)
[16]
  EC50: > 350 µM (not active)

## O=C1CN(c2ccccc2)C(=O)N1
[15]
  EC50: > 350 µM (not active)
[16]
  EC50: > 350 µM (not active)

## C/C=C/OC(=O)NC(c1cccc(C)c1)[C@@]1(C(=O)OCC)CCCC1=O (some centres not stated)
[17]
  AC50: 1.26 µM (inconclusive)

## COc1ccc(CCNC(=O)c2cc(-c3cccs3)on2)cc1OC
[15]
  EC50: > 350 µM (not active)
[16]
  EC50: > 350 µM (not active)

## Cc1ccc(-n2nnc(-c3nccn3C)n2)cc1
[18]
  AC50: > 52 µM (inactive)
[19]
  AC50: > 52 µM (inactive)
[1]
  AC50: 5.3 µM (active)
[2]
  AC50: 6.81 µM (active)

## CCCn1c(-c2ccc(F)cc2)nc2c(NCCN3CCCCC3)nc(C)nc21
[17]
  AC50: 15.8 µM (inconclusive)

## O=C(NC(=S)NCCc1ccccc1)c1ccccc1
[6]
  CC50: > 20 µM (active)

## CC(C)(C)c1ccc(C(=O)NCCCN2CCN(CCCNC(=O)c3ccc(C(C)(C)C)cc3)CC2)cc1
[20]
  EC50: 5.18 µM (active)
[21]
  EC50: 27.9 µM (active)
[22]
  AC50: 6.71 µM (active)
[23]
  AC50: 1.62 µM (active)
[24]
  IC50: > 20 µM (inactive)
[25]
  AC50: 15.2 µM (active)
[26]
  AC50: 4.84 µM (active)

## COCCCn1c(N)c(C(=O)Nc2sc3c(c2C(=O)OC)CCCC3)c2nc3ccccc3nc21
[27]
  AC50: 10 µM (inconclusive)
[20]
  EC50: 33.9 µM (active)
[28]
  IC50: > 79 µM (inactive)
[21]
  EC50: 27.8 µM (active)

## O=C(NCc1ccc(F)cc1)C1CCN(S(=O)(=O)N2CCOCC2)CC1
[15]
  EC50: > 350 µM (not active)
[16]
  EC50: > 350 µM (not active)

## O=C(NC(=S)Nc1ccccn1)c1cccc([N+](=O)[O-])c1
[15]
  EC50: > 350 µM (not active)
[16]
  EC50: > 350 µM (not active)

## O=C(CCc1ccccc1)N1CCN(c2ccc(Cl)cc2)CC1
[14]
  EC50: 4.01 µM (active)

## Nc1cc(=O)[nH]c(=O)n1Cc1ccccc1
[17]
  AC50: 25.1 µM (inconclusive)

## Cn1c(=O)c(C(=O)Nc2ccccn2)c(O)c2ccccc21
[5]
  CC50: 11.3 µM (active)
[6]
  CC50: > 20 µM (active)
[9]
  IC50: 11.1 µM (active)
[12]
  CC50: 19 µM (active)

## CCn1ncc(C2=NOC(C(=O)Nc3ccc4c(c3)OCO4)C2)c1C (configuration not stated)
[15]
  EC50: > 350 µM (not active)
[16]
  EC50: > 350 µM (not active)

## Cc1nn(Cc2ccccc2)c(Cl)c1C(=O)OCc1nnc(-c2ccccc2)o1
[14]
  EC50: 30.4 µM (active)

## CCCCCn1c(=O)c(C(=O)Nc2nc(CC(=O)OCC)cs2)c(O)c2ccccc21
[5]
  CC50: 11.8 µM (active)
[6]
  CC50: > 20 µM (active)
[9]
  IC50: 2.79 µM (active)
[12]
  CC50: 11.1 µM (active)

## O=[N+]([O-])c1ccc2[nH]cnc2c1
[17]
  AC50: 25.1 µM (inconclusive)

## COc1ccc(S(=O)(=O)Nc2ccc3c(c2)C(=O)N([C@H](C)CO)C[C@@H](C)[C@H](CN(C)S(=O)(=O)c2ccc(F)cc2)OCCCC[C@H](C)O3)cc1
[29]
  AC50: > 70 µM (inactive)
[30]
  AC50: 4.65 µM (active)

## C[C@@H]1CN([C@@H](C)CO)C(=O)c2cc(NS(=O)(=O)c3cccs3)ccc2O[C@@H](C)CCCCO[C@H]1CN(C)Cc1ccc(C(F)(F)F)cc1
[30]
  AC50: 25.2 µM (active)
[31]
  AC50: 44 µM (active)

## O=c1c(O)c(-c2ccccc2)oc2cccc(O)c12
[17]
  AC50: 12.6 µM (inconclusive)

## Nc1ccn([C@@H]2O[C@H](CO)[C@@H](OP(=O)(O)O)[C@H]2O)c(=O)n1
[17]
  AC50: 7.94 µM (inconclusive)

## CCc1nc(N2[C@H](C#N)[C@H](c3ccccc3-c3ccccc3F)[C@H]2CO)sc1C
[32]
  AC50: 7.33 µM (active)

## O=C(Cc1cccnc1)N1CC[C@H]2[C@H](CO)Nc3ccc(C#Cc4cccc(F)c4)cc3[C@H]21
[32]
  AC50: 6.12 µM (active)

## COc1ccccc1-c1ccc2c(c1)[C@H]1[C@H](CCN1C(=O)C1CCCC1)[C@@H](CO)N2
[32]
  AC50: 4.88 µM (active)

## CC(C)(C)[S@@+]([O-])N1Cc2cc(C(=O)NCCN3CCCCC3)nc(-c3cccc(-c4cccc(C#N)c4)c3)c2[C@H]1CCO
[32]
  AC50: 7.56 µM (active)

## COc1ccc(-c2c(O)c3c(OC)c4c(cc3oc2=O)OC(C)(C)CC4)cc1 [DIHYDROROBUSTIC ACID]
[17]
  AC50: 25.1 µM (inconclusive)
